From US4851411A, “5-monoaryl as.-triazin-3-ones substituted in 2-position, and their use as medicaments” (Pierre Fabre Medicament, priority 1986, dated 1989)

Assay: Solubility
Type: physicochemical
[1] = aqueous dilute acids, in the hot

Cc1ccc(-c2cnn(C(CCO)C(=O)O)c(=O)n2)cc1 (stereo not drawn) [Example 19, 2-[3-(3-carboxy 1-propanol)] 3-oxo 5-p-methylphenyl as.-triazine]
solubility in alcohols: Poorly soluble
solubility in benzene: Poorly soluble
solubility in chloroform (chloroform): Poorly soluble
solubility in ether: insoluble
solubility in water (water): insoluble

CCOc1ccc(-c2cnn(CC(C)=O)c(=O)n2)cc1 [Example 24, 2-acetonyl 3-oxo 5-p-ethoxyphenyl as.-triazine]
solubility in alcohols in the hot (in the hot): soluble
solubility in chlorinated solvents: Soluble
solubility in ether: insoluble
solubility in water (water): insoluble

COc1ccc(-c2cnn(CC(=O)c3ccc(Cl)cc3Cl)c(=O)n2)cc1 [Example 39, 2-(dichloro-2,4 phenacyl) 3-oxo 5-p.methoxyphenyl as triazine]
solubility in acetic acid: Soluble
solubility in alcohols: Insoluble
solubility in water (water): Insoluble

COc1ccc(-c2cnn(C(CCO)C(=O)O)c(=O)n2)cc1 (stereo not drawn) [Example 18, 2-[3-(3-carboxy 1-propanol)] 3-oxo 5-p-methoxyphenyl as.-triazine]
solubility in alcohols: rather soluble
solubility in chloroform (chloroform): Poorly soluble
solubility in methylene chloride (methylene chloride): Poorly soluble
solubility in water (water): insoluble

Cc1ccc(C2C=NN(C(c3ccccc3)C(O)c3ccccc3)C(=O)N2)cc1 (stereo not drawn) [Example 29, N-2[α(1,2-diphenylethan 1-ol)] 3-oxo 4,5-dihydro 5-p-methylphenyl as.-triazine]
solubility in alcohols in the hot (in the hot): Soluble
solubility in chloroform (chloroform): insoluble
solubility in ether: insoluble
solubility in water (water): insoluble

CC(=O)Cn1ncc(-c2ccc(OC3CCOC3=O)cc2)nc1=O (stereo not drawn) [Example 3, 2-acetonyl 3-oxo 5-p-(alphaoxy γ butryolactone)phenyl as.-triazine]
solubility in benzene: Insoluble
solubility in chloroform (chloroform): Insoluble
solubility in ether: Insoluble
solubility in water (water): Insoluble

COc1ccc(-c2cnn(CCCCCN3CCN(c4cccc(Cl)c4)CC3)c(=O)n2)cc1 [Example 15, 2-N (ε-pentyl m-chlorophenyl piperazine) 3-oxo 5-p-methoxyphenyl as.-triazine]
solubility in chloroform (chloroform): Soluble
solubility in ether: insoluble
solubility in methylene chloride (methylene chloride): Soluble
solubility in water (water): insoluble

CCOC(=O)CC(C(=O)OCC)n1ncc(-c2ccc(OC)cc2)nc1=O (stereo not drawn) [Example 27, 2-diethoxysuccinyl 3-oxo 5-p-methoxyphenyl as.-triazine]
solubility in alcohols: Soluble
solubility in benzene: Soluble
solubility in chloroform (chloroform): Soluble
solubility in water (water): insoluble

COc1ccc(-c2cnn(CCCN(C)C)c(=O)n2)cc1 [Example 17, 2-γ dimethylaminopropyl 3-oxo 5-p-methoxyphenyl as.-triazine]
solubility in alcohols: Soluble
solubility in aqueous dilute acids (aqueous dilute acids): Soluble
solubility in benzene: Soluble
solubility in chloroform (chloroform): Soluble
solubility in ether: insoluble
solubility in methylene chloride (methylene chloride): Soluble
solubility in water (water): insoluble

COc1ccc(-c2cnn(CCCCCN3CCC(O)CC3)c(=O)n2)cc1 [Example 28, N 2-[ε-pentyl (4-hydroxypiperidine)] 3-oxo 5-p-methoxyphenyl as.-triazine]
solubility in alcohols: Soluble
solubility in chloroform (chloroform): Soluble
solubility in water (water): insoluble

COc1ccc(-c2cnn(CC(=O)c3ccc(C)cc3)c(=O)n2)cc1 [Example 38, 2-p.methylphenacyl 3-oxo 5-p.methoxyphenyl as triazine]
solubility in acetic acid: Soluble
solubility in alcohols: Insoluble
solubility in water (water): Insoluble

CC(=O)Cn1ncc(-c2cccs2)nc1=O [Example 26, 2-acetonyl 3-oxo 5-γ-thienyl as.-triazine]
solubility in chlorinated solvents: Soluble
solubility in ether: insoluble
solubility in water (water): insoluble

COc1ccc(-c2cnn(CCO)c(=O)n2)cc1 [Example 31, 2-ethanol 3-oxo 5-p-methoxyphenyl as.-triazine]
solubility in benzene: insoluble
solubility in chloroform (chloroform): poorly soluble
solubility in ether: insoluble
solubility in methylene chloride (methylene chloride): rather soluble
solubility in water in the hot (water, in the hot): Soluble

CC(=O)Cn1ncc(-c2ccccc2)nc1=O [Example 7, 2-acetonyl 3-oxo 5-phenyl as.-triazine]
solubility in chloroform (chloroform): Soluble
solubility in ether: insoluble
solubility in methylene chloride (methylene chloride): Soluble
solubility in water (water): insoluble

CC(=O)c1ccc(N2CCN(CCCn3ncc(-c4ccc(C)cc4)nc3=O)CC2)cc1 [Example 11, 2-γ propyl p-piperazinoacetophenone 3-oxo 5-methylphenyl as.-triazine]
solubility in alcohols: insoluble
solubility in alcohols in the hot (in the hot): Soluble
solubility in chloroform in the hot (chloroform, in the hot): Soluble
solubility in ether: insoluble
solubility in methylene chloride in the hot (methylene chloride, in the hot): Soluble
solubility in water (water): insoluble

COc1ccc(-c2cnn(CC(C)=O)c(=O)n2)c(OC)c1 [Example 25, 2-acetonyl 3-oxo 5-(2',4'-dimethoxy)phenyl as.-triazine]
solubility in chloroform (chloroform): Soluble
solubility in ether: insoluble
solubility in methylene chloride (methylene chloride): Soluble
solubility in water (water): insoluble

CCOC(=O)CCCn1ncc(-c2ccc(C)cc2)nc1=O [Example 35, 2-N-ethylbutyrate 3-oxo 5-p-methylphenyl as.-triazine]
solubility in alcohols: Soluble
solubility in benzene: Soluble
solubility in chloroform (chloroform): Soluble
solubility in water (water): insoluble

COc1ccc(-c2cnn(CCN3CCN(c4cccc(Cl)c4)CC3)c(=O)n2)cc1 [Example 10, 2 β ethyl(metachlorophenyl)piperazine 3-oxo 5-p-methoxyphenyl as.-triazine]
solubility in aqueous dilute acids in the hot [1]: Soluble
solubility in chloroform (chloroform): Poorly soluble
solubility in methylene chloride (methylene chloride): Poorly soluble

Cc1ccc(-c2cnn(C3CCOC3=O)c(=O)n2)cc1 (stereo not drawn) [Example 20, 2-butyrolactone 3-oxo 5-p-methylphenyl as.-triazine]
solubility in benzene: poorly soluble
solubility in chloroform (chloroform): Soluble
solubility in ether: poorly soluble
solubility in methylene chloride (methylene chloride): Soluble
solubility in water (water): insoluble

Cc1ccc(-c2cnn(CCCCN3CCN(c4cccc(Cl)c4)CC3)c(=O)n2)cc1 [Example 13, 2-N-δ butyl (m-chlorophenyl piperazine) 3-oxo 5-p-methylphenyl as.-triazine]
solubility in alcohols in the hot (in the hot): Soluble
solubility in aqueous dilute acids in the hot [1]: Soluble
solubility in chloroform (chloroform): Soluble
solubility in ether: insoluble
solubility in methylene chloride (methylene chloride): Soluble
solubility in water (water): insoluble

COc1ccc(-c2cnn(CC(=O)C(C)C)c(=O)n2)cc1 [Example 5, 2-(3'-methyl 2'-one butyl) 3-oxo 5-p-methoxyphenyl as.-triazine]
solubility in benzene: poorly soluble
solubility in chloroform (chloroform): Soluble
solubility in ether: poorly soluble
solubility in methylene chloride (methylene chloride): Soluble
solubility in water (water): Insoluble
